Experimental data: publication PMC12700550, “DLL4^+ neutrophils promote Notch1-mediated endothelial PANoptosis to exacerbate acute lung injury in sepsis” (The Journal of Clinical Investigation, 2025)
Where “and” joins values, the source holds several entries; their conditions need not be identical. Equal values may be shown once.

What was measured:
Type in all cases: in vivo, mouse
c-GSDMD = assay: c/t GSDMD in lungs of CLP mice, Western blot; conditions: 10 mg/kg NDI, 20 h; for lung c/t GSDMD (Figure 5D): individual mice, 10 mg/kg
Procedure: Sepsis was induced in mice by cecal ligation and puncture (CLP) as described previously ([45], [46]). Mice were anesthetized with isoflurane to a surgical plane and placed in a supine position. CLP was performed through a midline laparotomy. The abdomen was shaved and disinfected. Through a 2 cm midline incision, the cecum was exposed and then ligated with a 4-0 silk suture 1 cm proximal from the distal cecal extremity. For 20-hour CLP experiments, the cecum was punctured twice with a 22-gauge needle. A small amount of cecal content was extruded through both holes, and the ligated cecum was returned to the peritoneal cavity. The wound was closed in layers. For 10-day sepsis survival studies, the cecum was punctured once with a 22-gauge needle. A small amount of cecal content was extruded. Mice were allocated to the vehicle and adoptive transfer of DLL4^+ neutrophils or DLL4^– neutrophils groups. Adoptive transfer mice received a retro-orbital injection of 1 × 10^6 cells per mouse DLL4^+ neutrophils or DLL4^– neutrophils in […] phosphate-buffered saline (PBS) immediately after abdominal closure in both the 20-hour experiments and the survival study. Vehicle groups received an equivalent volume of PBS, while treatment groups received NDI 10 mg/kg in […] PBS via retro-orbital injection after CLP. This dose was chosen primarily on the basis of our laboratory’s prior experience, we have consistently used this dose in mouse CLP models with reproducible efficacy and without observable toxicity ([39], [44]). Sham-operated animals underwent a laparotomy without CLP. After closure, the mice received a subcutaneous injection of 0.5 mL of normal saline to overcome surgery-induced dehydration. […]
(§1) PVECs and lung tissue were collected in previous steps. Whole-cell proteins were extracted, and the protein concentration was measured using an ABC protein assay kit (catalog 5000002, Bio-Rad). […] Bands were detected using an Odyssey FC Dual-Mode Imaging system 2800 (LI-COR).

c-caspase-3 = assay: c/t caspase-3 in lungs of CLP mice, Western blot; conditions: 10 mg/kg NDI, 20 h; for lung c/t caspase-3 (Figure 5E): individual mice, 10 mg/kg
Procedure: Sepsis was induced in mice by cecal ligation and puncture (CLP) as described previously ([45], [46]). Mice were anesthetized with isoflurane to a surgical plane and placed in a supine position. CLP was performed through a midline laparotomy. The abdomen was shaved and disinfected. Through a 2 cm midline incision, the cecum was exposed and then ligated with a 4-0 silk suture 1 cm proximal from the distal cecal extremity. For 20-hour CLP experiments, the cecum was punctured twice with a 22-gauge needle. A small amount of cecal content was extruded through both holes, and the ligated cecum was returned to the peritoneal cavity. The wound was closed in layers. For 10-day sepsis survival studies, the cecum was punctured once with a 22-gauge needle. A small amount of cecal content was extruded. Mice were allocated to the vehicle and adoptive transfer of DLL4^+ neutrophils or DLL4^– neutrophils groups. […] Vehicle groups received an equivalent volume of PBS, while treatment groups received NDI 10 mg/kg in […] PBS via retro-orbital injection after CLP. This dose was chosen primarily on the basis of our laboratory’s prior experience, we have consistently used this dose in mouse CLP models with reproducible efficacy and without observable toxicity ([39], [44]). Sham-operated animals underwent a laparotomy without CLP. After closure, the mice received a subcutaneous injection of 0.5 mL of normal saline to overcome surgery-induced dehydration. For 20-hour experiments, animals were not injected with antibiotics; however, for survival studies, animals were given 0.5 mg per kg body weight imipenem (lot 4D21K05, WG Critical Care LLC) subcutaneously in 0.5 mL saline once at the end of CLP. All mice were subcutaneously injected with a single dose of 0.1 mg/kg buprenorphine after CLP.
as §1

C57BL/6 mice, CLP sepsis = assay: Lung injury score (H&E), CLP mice; conditions: 20 h; for lung injury score (Figure 6J): 10 mg/kg NDI, score 0 to 1, individual values
Procedure: Sepsis was induced in mice by cecal ligation and puncture (CLP) as described previously ([45], [46]). Mice were anesthetized with isoflurane to a surgical plane and placed in a supine position. CLP was performed through a midline laparotomy. The abdomen was shaved and disinfected. Through a 2 cm midline incision, the cecum was exposed and then ligated with a 4-0 silk suture 1 cm proximal from the distal cecal extremity. […] A small amount of cecal content was extruded through both holes, and the ligated cecum was returned to the peritoneal cavity. The wound was closed in layers. […] A small amount of cecal content was extruded. […] Vehicle groups received an equivalent volume of PBS, while treatment groups received NDI 10 mg/kg in […] PBS via retro-orbital injection after CLP. This dose was chosen primarily on the basis of our laboratory’s prior experience, we have consistently used this dose in mouse CLP models with reproducible efficacy and without observable toxicity ([39], [44]). Sham-operated animals underwent a laparotomy without CLP. After closure, the mice received a subcutaneous injection of 0.5 mL of normal saline to overcome surgery-induced dehydration. […] All mice were subcutaneously injected with a single dose of 0.1 mg/kg buprenorphine after CLP. Lung tissues were fixed in 10% formalin before being embedded in paraffin. Blocks were cut into 5 μm sections and stained with H&E. Slides were evaluated under light microscopy to assess the degree of lung injury. Scoring was done using a system created by the American Thoracic Society ([47]). Scores ranged from 0 to 1 and were based on proteinaceous debris in the airspaces, the degree of septal thickening, and neutrophil infiltration in the alveolar and interstitial spaces. The average score per field was calculated at ×200 original magnification.

For ECAGSPCHNGGTCEDGI [NDI], which “lung c/t GSDMD (Figure 5D)” value (c-GSDMD; DLL4^+ neutrophils + CLP) is on record?
Its value is 2.146 and 1.894 and 1.978 and 1.095 and 1.287 and 1.8342.

What about the “effect on lung c-GSDMD” value (c-GSDMD; DLL4^+ neutrophils/sepsis) of the same sequence?
The value was “attenuated the expression/activation”.

And the “lung c/t GSDMD (Figure 5D)” value (c-GSDMD; DLL4^– neutrophils + CLP)?
The value was 1.599 and 0.7489 and 0.6289 and 1.139 and 1.05.

And the “lung c/t caspase-3 (Figure 5E)” value (c-caspase-3; DLL4^+ neutrophils + CLP)?
Its value is 0.946 and 0.8954 and 1.049 and 0.8952 and 1.09 and 1.113 and 0.9785 and 0.9235 and 1.192.

And the “effect on lung c-caspase-3” value (c-caspase-3; DLL4^+ neutrophils/sepsis)?
The value was “attenuated the expression/activation”.

What about the “lung c/t caspase-3 (Figure 5E)” value (c-caspase-3; DLL4^– neutrophils + CLP) of the same sequence?
Its value is 1.224 and 1.151 and 0.8027 and 0.9965 and 0.8798 and 1.281.

And the “effect on lung injury” value (C57BL/6 mice, CLP sepsis; DLL4^+ neutrophil-injected CLP mice, 10 mg/kg)?
Its value is “significantly lower lung injury scores”.

And the “lung injury score (Figure 6J)” value (C57BL/6 mice, CLP sepsis; DLL4^+ neutrophils + CLP)?
Its value is 0.52 and 0.49 and 0.54 and 0.51 and 0.53.

What about the “lung injury score (Figure 6J)” value (C57BL/6 mice, CLP sepsis; DLL4^– neutrophils + CLP) of the same sequence?
The value was 0.58 and 0.44 and 0.52 and 0.48 and 0.54.
